Legend:
[1] = target: T1, Neutrophil elastase (Homo sapiens, UniProt P08246); assay: (§1) In vitro inhibition of Human Leukocyte Elastase enzyme in whole blood stimulated with A-23187 (at dose 3 uM); assay type: functional, tissue-based
T1 sequence (P08246 whole entry): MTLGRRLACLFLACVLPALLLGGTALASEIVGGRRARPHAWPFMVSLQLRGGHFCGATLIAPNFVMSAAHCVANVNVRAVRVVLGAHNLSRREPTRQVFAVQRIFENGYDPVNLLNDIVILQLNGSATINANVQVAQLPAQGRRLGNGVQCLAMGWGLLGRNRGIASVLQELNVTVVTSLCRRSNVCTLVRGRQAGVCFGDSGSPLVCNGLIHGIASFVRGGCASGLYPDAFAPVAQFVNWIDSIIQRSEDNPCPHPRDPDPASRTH

[2] = target: T2, Neutrophil elastase (Homo sapiens) (UniProt P08246); assay: Compound was tested for inhibition of Human Leukocyte Elastase enzyme, expressed in term of bimolecular rate constant (Kinact/Ki)
T2 sequence (whole entry): T1 sequence (P08246 whole entry)

[3] = test system: Cricetinae gen. sp.; assay: Effective dose required to in vivo inhibition in HLE-induced hamster lung hemorrhage when given orally 5 hr before the enzyme; assay type: functional; details: po
[4] = target: T2, Neutrophil elastase (Homo sapiens); assay: as §1; assay type: functional, tissue-based
[5] = test system: Cricetinae gen. sp.; assay: In vivo inhibition in HLE-induced hamster lung hemorrhage when given orally at 10 mg/kg, 2 hr before challenge by HLE; assay type: functional; details: route oral

Row | IC50 [1] [µM] | Ratio [2] [M⁻¹ s⁻¹] | inhibition [4] [%] | Compound | ED50 [3] [mg/kg] | inhibition in vivo at 10 mg/kg [5] [%]
1 | 9 | 622000 | – | CCC[C@@H](NC(=O)N1C(=O)C(CC)(CC)[C@@H]1Oc1ccc(CC(=O)O)cc1)c1ccc(C)cc1 | 1.5 | –
2 | – | 740000 | 48 | C=CCP(=O)(O)Cc1ccc(O[C@@H]2N(C(=O)N[C@H](CCC)c3ccc(C)cc3)C(=O)C2(CC)CC)cc1 | – | 19
3 | – | 906000 | 50 | CCC[C@@H](NC(=O)N1C(=O)C(CC)(CC)[C@@H]1Oc1ccc(CP(=O)(O)CCC)cc1)c1ccc(C)cc1 | – | 15
4 | – | 1.17e+06 | 34 | CCC[C@@H](NC(=O)N1C(=O)C(CC)(CC)[C@@H]1Oc1ccc(CP(=O)(O)c2ccccc2)cc1)c1ccc(C)cc1 | – | 27
5 | – | 417000 | 55 | CCC[C@@H](NC(=O)N1C(=O)C(CC)(CC)[C@@H]1Oc1ccc(CP(C)(=O)O)cc1)c1ccc(C)cc1 | – | -59
6 | – | 1.33e+06 | 51 | C=CCP(=O)(Cc1ccc(O[C@@H]2N(C(=O)N[C@H](CCC)c3ccc(C)cc3)C(=O)C2(CC)CC)cc1)OCC (stereo not given in full) | – | 64
7 | – | 1.05e+06 | – | CCC[C@@H](NC(=O)N1C(=O)C(CC)(CC)[C@@H]1Oc1ccc(CP(=O)(CCC)OC(OC(=O)CC)C(C)C)cc1)c1ccc(C)cc1 (stereo not given in full) | – | –

Row | Compound | IC50 [1] [µM] | Ratio [2] [M⁻¹ s⁻¹] | inhibition [4] [%] | ED50 [3] [mg/kg] | inhibition in vivo at 10 mg/kg [5] [%]
8 | CCC[C@@H](NC(=O)N1C(=O)C(CC)(CC)[C@@H]1Oc1ccc(CP(=O)(OCC)OCC)cc1)c1ccc(C)cc1 | – | 1.16e+06 | 63 | – | 15
9 | CCC[C@@H](NC(=O)N1C(=O)C(CC)(CC)[C@@H]1Oc1ccc(CP(=O)(O)O)cc1)c1ccc(C)cc1 | – | 217000 | 61 | – | 17

From ChEMBL document CHEMBL1128120, “Phosphorous acid analogs of L-680,833, a potent monocyclic -lactam inhibitor of human leukocyte elastase” (Bioorg Med Chem Lett, 1995)
